From ChEMBL document CHEMBL1140023, “Synthesis of marine alkaloid: 8,9-dihydrocoscinamide B and its analogues as Novel class of antileishmanial agents” (2007)
Activity calls are given as the source filed them. The calls are words filed in the database; no cut-off is given here.

Key:
Assay type in all cases: functional
[1] = test system: Leishmania donovani; experiment: Antileishmanial activity against Leishmania donovani assessed as inhibition of amastigotes at 10 ug/ml
[2] = test system: Leishmania donovani; experiment: Antileishmanial activity against Leishmania donovani assessed as inhibition of promastigotes at 10 ug/ml
[3] = test system: Leishmania donovani; experiment: Antileishmanial activity against Leishmania donovani assessed as inhibition of promastigotes at 0.5 ug/ml
[4] = test system: Leishmania donovani; experiment: Antileishmanial activity against Leishmania donovani assessed as inhibition of amastigotes at 50 ug/ml

Compound	inhibition at 10 µg/mL [2]	further results
O=C(C(=O)N1CCOCC1)c1c[nH]c2ccccc12	83.2%	inhibition at 10 µg/mL [1]: 78.1%
O=C(NCCc1c[nH]c2ccccc12)C(=O)c1c[nH]c2ccccc12	100%	inhibition at 10 µg/mL [1]: 97.7%
O=C(NCc1ccco1)C(=O)c1c[nH]c2ccccc12	99.2%	Activity [1]: inactive
N=C(N)NC(=O)C(=O)c1c[nH]c2ccccc12	55%	–
O=C(NCCc1c[nH]c2ccccc12)C(=O)c1c[nH]c2cc(Br)ccc12	99.2%	inhibition at 10 µg/mL [1]: 75.1%
O=C(NCCc1cn(S(=O)(=O)c2ccccc2)c2ccccc12)C(=O)c1cn(S(=O)(=O)c2ccccc2)c2ccccc12	49%	–
O=C(NCCCN1CCOCC1)C(=O)c1c[nH]c2ccccc12	73%	–
O=C(Nc1ccc2[nH]ccc2c1)C(=O)c1c[nH]c2ccccc12	93.7%	Activity [1]: Active
O=C(NCc1ccccc1)C(=O)c1c[nH]c2ccccc12	53.9%	–
O=C(NCCc1c[nH]c2ccccc12)C(=O)c1c[nH]c2c(Cl)cccc12	99.1%	inhibition at 10 µg/mL [1]: 59.1%
N=C(N)c1ccc(OCCCCCOc2ccc(C(=N)N)cc2)cc1 [PENTAMIDINE]	30%	inhibition at 0.5 µg/mL [3]: 85%; inhibition at 50 µg/mL [4]: 90%
Cn1cc(CCNC(=O)C(=O)c2cn(C)c3ccccc23)c2ccccc21	99%	inhibition at 10 µg/mL [1]: 97.8%
O=C(Nc1nc2ccccc2s1)C(=O)c1c[nH]c2ccccc12	18%	–
COc1ccc(CCNC(=O)C(=O)c2c[nH]c3ccccc23)cc1OC	78.2%	–
CN1CCN(C(=O)C(=O)c2c[nH]c3ccccc23)CC1	35.9%	–
COc1ccc(CCNC(=O)C(=O)c2c[nH]c3ccccc23)cc1	68.5%	–
O=C(NCCCn1ccnc1)C(=O)c1c[nH]c2ccccc12	55.5%	–
